The numbers were not newly measured in patent US10251778B2, “Therapeutics dispensing device and methods of making same” (Baylor College of Medicine, priority 2012, dated 2019), which cites them from elsewhere.

SMILES strings stand for the structures. Structures can show the parent of a compound that is named as a salt.

The conditions of data set [1]: Acrylate Polymer Nanosuspensions.
The subject of data set [2] is human cytomegalovirus (HCMV). The settings on record: Albumin Nanoparticles.
Experiment in data set [3]: not given
The source holds these as a separate data set.

The conditions of data set [4]: in vitro.
Where [5] appears, read: Poly(butyl)-cyano acrylate Nanopartilces.

Consider `CC(=O)Nc1nnc(S(N)(=O)=O)s1` [Acetazolamide], for which, for the setting “Liposomes”, the “Result (IOP)” value was “Produced a marked decrease in IOP”.
With `CC(C(=O)O)c1ccc(-c2ccccc2)c(F)c1` (stereo not drawn) [Flurbiprofen], the “Result (drug levels in aqueous humour)” value in data set [1] is given as “Increased drug levels in aqueous humour”.
Consider `Nc1nc2c(ncn2COC(CO)CO)c(=O)[nH]1` [GCV], for which the “Result (antiviral activity)” value in data set [2] is reported as “Increased antiviral aciivity against human”.
In the case of `CC[C@@H]1C(=O)OC[C@@H]1Cc1cncn1C` [Pilocarpine HCl], the “Result (response and ocular bioavailability)” value in data set [3] (Liposomes) was “Increased mitotic response and ocular”.
In the case of `CC[C@@H]1C(=O)OC[C@@H]1Cc1cncn1C` [Pilocarpine nitrate], in data set [3] (Dendrimers), the “Result (miotic activity)” value was “Prolonged miotic activity”.
Regarding `CC[C@@H]1C(=O)OC[C@@H]1Cc1cncn1C` [Pilocarpine], the “Result (response)” value in data set [3] (setting [5]) was “Enhanced mitotic response and decrease”. The “Decreased IOP” value (Microemulsions) is listed as “Decreased IOP by 25%”. Further, the “decrease in IOP” value under setting [5] is recorded as “in IOP by 22%”.
On to `CC[C@@H]1C(=O)OC[C@@H]1Cc1cncn1C` [pilocarpine base, pilocarpine], for which the “transcorneal penetration relative to the ionized form” value in data set [4] is on record as 2-3 times.
